Here are results for 23 molecules from US7186534B1 (The Trustees of Columbia University in the City of New York, priority 1997, dated 2007).

“Also recorded” adds a separate entry of the source. Where two headings read alike, the source gives them in different places.

For assay [1], the target named is T1, human 9-cis retinol dehydrogenase (9cRDH) (Homo sapiens, UniProt Q92781).
T1 sequence (Q92781 1-318): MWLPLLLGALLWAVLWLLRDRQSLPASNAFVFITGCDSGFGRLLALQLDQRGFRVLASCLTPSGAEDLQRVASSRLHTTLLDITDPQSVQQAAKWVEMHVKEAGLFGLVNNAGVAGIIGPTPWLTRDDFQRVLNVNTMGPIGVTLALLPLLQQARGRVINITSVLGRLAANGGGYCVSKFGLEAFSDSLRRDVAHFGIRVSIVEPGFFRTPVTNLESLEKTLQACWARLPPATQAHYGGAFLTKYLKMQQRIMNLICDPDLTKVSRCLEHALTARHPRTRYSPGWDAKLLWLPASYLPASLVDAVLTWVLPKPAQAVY
In words: Inhibition of recombinant human 9cRDH activity (9-cis-retinol oxidation, CHO cell homogenate, HPLC). It counts as biochemical. To be noted: for inhibition of human 9cRDH activity (in words) / IC50: 10 μM 9-cis-retinol; for IC50: 15 min, 37° C., CHO cell homogenate, read-out: Estimated inhibitor concentration resulting in 50% inhibition of human 9-cis retinol dehydrogenase activity (ID50).

For another assay, the target named is T2, mouse 9cRDH (Mus musculus, UniProt O55240).
T2 sequence (O55240 1-318): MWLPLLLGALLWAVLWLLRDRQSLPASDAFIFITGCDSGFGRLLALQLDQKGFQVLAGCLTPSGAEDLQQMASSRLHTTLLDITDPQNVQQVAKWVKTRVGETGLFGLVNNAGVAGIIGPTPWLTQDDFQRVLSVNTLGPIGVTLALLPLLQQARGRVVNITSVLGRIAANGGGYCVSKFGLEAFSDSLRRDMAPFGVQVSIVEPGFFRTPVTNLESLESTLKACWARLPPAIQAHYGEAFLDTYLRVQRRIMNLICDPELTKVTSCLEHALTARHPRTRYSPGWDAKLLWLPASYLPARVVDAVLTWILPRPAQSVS
As to the kind of experiment: Inhibition of recombinant mouse 9cRDH activity (9-cis-retinol oxidation, CHO cell homogenate, HPLC). It counts as biochemical. To be noted: for inhibition of mouse 9cRDH activity (in words): 10 μM 9-cis-retinol.

Where [2] appears, read: 10 μM steroid, equimolar to substrate, forward (retinol oxidation) or reverse (retinaldehyde reduction) direction.
Where [3] appears, read: phenylarsine oxide 15 μM, carbenoxolone 0.5 mM, all others 1 mM.
Where [4] appears, read: […] 15 μM, carbenoxolone 0.5 mM, all others 1 mM.
[5] abbreviates: NaCl up to 1 M, β-mercaptoethanol, dithiothreitol 1 mM, Triton X-100, sodium cholate 1% (w/v).

`CCCCCCCC/C=C\CCCCCCCC(=O)O` [Oleic Acid, oleic acid]: in assay [1], the “times (fold) less potent than 13-cis retinoic acid as inhibitor of 9cRDH” value is “approximately 100”, the “inhibition of human 9cRDH activity (in words)” value is on record as “mild inhibitor; also recorded: only very weak inhibitors; also recorded: weakly inhibited” and the IC50 was 15 µM. The “inhibition of mouse 9cRDH activity (in words)” value at mouse 9cRDH is given as “only very weak inhibitors”.
For the molecule `C[C@]12CC[C@@H]3c4ccc(O)cc4CC[C@H]3[C@@H]1CC[C@@H]2O` [β-estradiol], the “inhibition of human 9cRDH activity by hydroxysteroids” value in assay [1] (setting [2]) is on record as “none of these hydroxysteroids inhibited”. The “inhibition of mouse 9cRDH activity by hydroxysteroids” value at mouse 9cRDH (setting [2]) is given as “none of these hydroxysteroids inhibited”.
`CC1(C)[C@@H](OC(=O)CCC(=O)O)CC[C@]2(C)[C@H]3C(=O)C=C4[C@@H]5C[C@@](C)(C(=O)O)CC[C@]5(C)CC[C@@]4(C)[C@]3(C)CC[C@@H]12` [carbenoxolone]: the “influence of SCAD/alcohol dehydrogenase inhibiting reagents on recombinant human 9cRDH activity” value in assay [1] (setting [3]) is recorded as “none of these compounds influenced”. The “influence of SCAD/alcohol dehydrogenase inhibiting reagents on recombinant mouse 9cRDH activity” value on mouse 9cRDH (setting [3]) is listed as “none of these compounds influenced”.
In the case of `Cc1cn[nH]c1` [4-methylpyrazole], the “influence of SCAD/alcohol dehydrogenase inhibiting reagents on recombinant human 9cRDH activity” value in assay [1] (setting [3]) is recorded as “none of these compounds influenced”. In addition, on mouse 9cRDH (setting [3]), the “influence of SCAD/alcohol dehydrogenase inhibiting reagents on recombinant mouse 9cRDH activity” value is given as “none of these compounds influenced”.
Turning to `CC(=O)[O-].CC(=O)[O-].[Zn+2]` [zinc acetate], in assay [1], the “influence of SCAD/alcohol dehydrogenase inhibiting reagents on recombinant human 9cRDH activity” value is on record as “none of these compounds influenced”. At mouse 9cRDH, the “influence of SCAD/alcohol dehydrogenase inhibiting reagents on recombinant mouse 9cRDH activity” value is recorded as “none of these compounds influenced”.
As to `C[C@]12C=CC(=O)C=C1CC[C@@H]1[C@@H]2C(=O)C[C@@]2(C)[C@H]1CC[C@]2(O)C(=O)CO` [prednisone], the “inhibition of human 9cRDH activity by hydroxysteroids” value in assay [1] (setting [2]) is “none of these hydroxysteroids inhibited”. Also, at mouse 9cRDH (setting [2]), the “inhibition of mouse 9cRDH activity by hydroxysteroids” value is on record as “none of these hydroxysteroids inhibited”.
Take `CC(C)=CCCC(C)=CC=O` [citral]: the “influence of SCAD/alcohol dehydrogenase inhibiting reagents on recombinant human 9cRDH activity” value in assay [1] (setting [4]) is “none of these compounds influenced”. The “influence of SCAD/alcohol dehydrogenase inhibiting reagents on recombinant mouse 9cRDH activity” value at mouse 9cRDH (setting [4]) is recorded as “none of these compounds influenced”.
On to `CCO` [ethanol], for which, in assay [1], the “inhibition of human 9cRDH activity (in words)” value is reported as “not inhibited”. Also, the “effect on 9cRDH activity expressed in CHO cells (first series)” value (“effect on 9cRDH activity expressed” below) in assay [1] (setting [5]) is given as “not inhibited”. The “inhibition of mouse 9cRDH activity (in words)” value at mouse 9cRDH is “not inhibited”.
On to `CCN(CC)C(=S)SSC(=S)N(CC)CC` [disulfuran], for which, in assay [1] (setting [4]), the “influence of SCAD/alcohol dehydrogenase inhibiting reagents on recombinant human 9cRDH activity” value is on record as “none of these compounds influenced”. The “influence of SCAD/alcohol dehydrogenase inhibiting reagents on recombinant mouse 9cRDH activity” value at mouse 9cRDH (setting [4]) was “none of these compounds influenced”.
`C[C@]12CC[C@H](O)C[C@@H]1CC[C@@H]1[C@@H]2CC[C@]2(C)[C@@H](O)CC[C@@H]12` [5α-androstane-3β, 17βdiol]: the “inhibition of human 9cRDH activity by hydroxysteroids” value in assay [1] (setting [2]) is on record as “none of these hydroxysteroids inhibited”. In addition, the “inhibition of mouse 9cRDH activity by hydroxysteroids” value on mouse 9cRDH (setting [2]) is “none of these hydroxysteroids inhibited”.
Take Triton X-100: the “effect on 9cRDH activity expressed” value in assay [1] is recorded as “rapidly inactivated”.
As for `C[C@H](CCC(=O)[O-])[C@H]1CC[C@H]2[C@@H]3[C@H](O)C[C@@H]4C[C@H](O)CC[C@]4(C)[C@H]3C[C@H](O)[C@]12C.[Na+]` [sodium cholate], the “effect on 9cRDH activity expressed” value in assay [1] is “rapidly inactivated”.
Turning to `CCCCCCCC/C=C\CCCCCCCCO` [Oleyl Alcohol, oleyl alcohol], in assay [1], the “inhibition of human 9cRDH activity (in words)” value is listed as “did not inhibit; also recorded: only very weak inhibitors; also recorded: not an inhibitor” and the IC50 was above 100 µM. On mouse 9cRDH, the “inhibition of mouse 9cRDH activity (in words)” value was “only very weak inhibitors”.
Regarding `CCCCCCCCCCC/C=C\CCCCCO` [Petroselinyl Alcohol, petroselinyl alcohol], the “inhibition of human 9cRDH activity (in words)” value in assay [1] is “did not inhibit; also recorded: not an inhibitor”; in assay [1] (listed as petrosenlinyl alcohol), “only very weak inhibitors”. For the same molecule, in assay [1], the IC50 is above 100 µM. Moreover, the “inhibition of mouse 9cRDH activity (in words)” value on mouse 9cRDH is reported as “only very weak inhibitors”.
Consider `c1cnc2c(c1)ccc1cccnc12` [o-phenanthroline, 1,10-phenanthroline], for which the “effect on 9cRDH activity expressed” value in assay [1] (setting [5]) is “not inhibited”. Besides, the “influence of SCAD/alcohol dehydrogenase inhibiting reagents on recombinant human 9cRDH activity” value in assay [1] (setting [3]) is “none of these compounds influenced”. For the same molecule, on mouse 9cRDH (setting [3]), the “influence of SCAD/alcohol dehydrogenase inhibiting reagents on recombinant mouse 9cRDH activity” value is listed as “none of these compounds influenced”.
Take `C[C@]12C[C@H](O)[C@H]3[C@@H](CCC4=CC(=O)CC[C@@]43C)[C@@H]1CC[C@@H]2C(=O)CO` [corticosterone]: the “inhibition of human 9cRDH activity by hydroxysteroids” value in assay [1] (setting [2]) is on record as “none of these hydroxysteroids inhibited”. Further, the “inhibition of mouse 9cRDH activity by hydroxysteroids” value on mouse 9cRDH (setting [2]) is on record as “none of these hydroxysteroids inhibited”.
Take `C[C@]12CCC(=O)C=C1CC[C@@H]1[C@@H]2C(=O)C[C@@]2(C)[C@H]1CC[C@]2(O)C(=O)CO` [cortisone]: the “inhibition of human 9cRDH activity by hydroxysteroids” value in assay [1] (setting [2]) is listed as “none of these hydroxysteroids inhibited”. Besides, the “inhibition of mouse 9cRDH activity by hydroxysteroids” value at mouse 9cRDH (setting [2]) was “none of these hydroxysteroids inhibited”.
`CC(=O)[C@H]1CC[C@H]2[C@@H]3CCC4=CC(=O)CC[C@]4(C)[C@H]3CC[C@]12C` [progesterone]: in assay [1] (setting [2]), the “inhibition of human 9cRDH activity by hydroxysteroids” value is recorded as “none of these hydroxysteroids inhibited”. Besides, the “inhibition of mouse 9cRDH activity by hydroxysteroids” value on mouse 9cRDH (setting [2]) is “none of these hydroxysteroids inhibited”.
As to `CCCCCCCCCCCCCCCC(=O)O` [Palmitic Acid, palmitic acid], in assay [1], the IC50 is above 100 µM. Also, the figures for the “inhibition of human 9cRDH activity (in words)” value in assay [1] (listed as Palmitic acid) and in assay [1] (listed as palmitic acid) were “not an inhibitor” and “not inhibitory; also recorded: only very weak inhibitors”, respectively. In addition, the “inhibition of mouse 9cRDH activity (in words)” value on mouse 9cRDH is “only very weak inhibitors”.
`C[C@]12CCC(=O)C[C@@H]1CC[C@@H]1[C@@H]2CC[C@]2(C)C(=O)CC[C@@H]12` [5α-androstane-3,17dione]: the “inhibition of human 9cRDH activity by hydroxysteroids” value in assay [1] is given as “none of these hydroxysteroids inhibited”. Moreover, the “inhibition of mouse 9cRDH activity by hydroxysteroids” value on mouse 9cRDH is reported as “none of these hydroxysteroids inhibited”.
In the case of `C[C@]12CCC(=O)C=C1CC[C@@H]1[C@@H]2CC[C@]2(C)C(=O)CC[C@@H]12` [4-androstene-3,17dione], the “inhibition of human 9cRDH activity by hydroxysteroids” value in assay [1] (setting [2]) is reported as “none of these hydroxysteroids inhibited”. Moreover, the “inhibition of mouse 9cRDH activity by hydroxysteroids” value on mouse 9cRDH (setting [2]) is on record as “none of these hydroxysteroids inhibited”.
In the case of `C[C@]12CCC(=O)C=C1CC[C@@H]1[C@@H]2[C@@H](O)C[C@@]2(C)[C@H]1CC[C@]2(O)C(=O)CO` [hydrocortisone], the “inhibition of human 9cRDH activity by hydroxysteroids” value in assay [1] (setting [2]) was “none of these hydroxysteroids inhibited”. In addition, the “inhibition of mouse 9cRDH activity by hydroxysteroids” value on mouse 9cRDH (setting [2]) is listed as “none of these hydroxysteroids inhibited”.
As for `O=C(O)CN(CCN(CC(=O)O)CC(=O)O)CC(=O)O` [EDTA], the “effect on 9cRDH activity expressed” value in assay [1] (setting [5]) was “not inhibited”.
